Results reported in patent publication US20230339970A1, “CASEIN KINASE 1 DELTA MODULATORS” (priority 2020, published 2023).

What was measured:
human CSNK1D = biological target: T1, human CSNK1D (Homo sapiens, UniProt P48730); experiment: Whole Cell nBRET CSNK1D Binding Assay; conditions: living CHO cells stably expressing human CSNK1D tagged with nanoluciferase; NanoBret tracer 130 nM; 2 hours at 37 C
T1 construct: expressed in transfected cells

[1] = biological target: T2, human recombinant GST cleaved CSNK1D (Homo sapiens, UniProt P48730); experiment: Purified Enzyme Assay (ADP-Glo CSNK1D Kinase Assay); assay type: biochemical; conditions: 2 nM CSNK1D; peptide substrate 150 μM; ATP 20 μM; 45 minutes at room temperature
T2 construct: GST (cleaved yes); purchased University of Dundee clone DU 19064
T2 sequence (P48730 whole entry): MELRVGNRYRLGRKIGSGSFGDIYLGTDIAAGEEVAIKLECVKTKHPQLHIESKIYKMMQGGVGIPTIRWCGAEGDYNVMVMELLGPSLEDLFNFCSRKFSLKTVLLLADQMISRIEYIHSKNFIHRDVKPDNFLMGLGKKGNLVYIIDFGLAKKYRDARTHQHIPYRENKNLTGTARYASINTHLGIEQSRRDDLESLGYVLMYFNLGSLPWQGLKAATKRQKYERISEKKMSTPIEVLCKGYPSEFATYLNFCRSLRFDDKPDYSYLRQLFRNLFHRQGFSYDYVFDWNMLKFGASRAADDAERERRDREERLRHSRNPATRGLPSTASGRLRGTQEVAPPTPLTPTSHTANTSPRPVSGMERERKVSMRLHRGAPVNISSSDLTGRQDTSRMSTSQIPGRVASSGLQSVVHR
Outline: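 GST-cleaved human recombinant CSNK1D phosphorylates peptide PLSRTL-pS-VASLPGL with ATP; compounds added in dose-response, 45 min at room temperature. ADP formed measured by ADP-Glo luminescence and converted to percent activity.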

T1 sequence (P48730 whole entry): as above

Row | Structure (SMILES) | IC50 (human CSNK1D) [µM] | IC50 [1] [µM]
1 | [2H]C([2H])([2H])[C@@]1(C(F)(F)F)Cn2nc(-c3ccc(F)cn3)c(-c3ccnc4[nH]ncc34)c2CO1 (single isomer, unassigned) [Example 424, (*S)-2-(5-Fluoropyridin-2-yl)-6-(methyl-d3)-3-(1H-pyrazolo[3,4-b]pyridin-4-yl)-6-(trifluoromethyl)-6,7-dihydro-4H-pyrazolo[5,1-c][1,4]oxazine] | 0.04 | 0.004
2 | [2H]C([2H])([2H])[C@]1(C(F)(F)F)Cn2nc(-c3ccc(F)cn3)c(-c3ccnc4[nH]nc(C)c34)c2CO1 (single isomer, unassigned) [Example 425, (*R)-2-(5-Fluoropyridin-2-yl)-6-(methyl-d3)-3-(3-methyl-1H-pyrazolo[3,4-b]pyridin-4-yl)-6-(trifluoromethyl)-6,7-dihydro-4H-pyrazolo[5,1-c][1,4]oxazine] | 2.26 | 0.235
3 | [2H]C([2H])([2H])[C@@]1(C(F)(F)F)Cn2nc(-c3ccc(F)cn3)c(-c3ccnc4[nH]nc(C)c34)c2CO1 (single isomer, unassigned) [Example 426, (*S)-2-(5-Fluoropyridin-2-yl)-6-(methyl-d3)-3-(3-methyl-1H-pyrazolo[3,4-b]pyridin-4-yl)-6-(trifluoromethyl)-6,7-dihydro-4H-pyrazolo[5,1-c][1,4]oxazine] | 0.087 | 0.017
4 | [2H]C([2H])([2H])[C@@]1(C(F)(F)F)Cn2nc(-c3ccc(F)cn3)c(-c3ccnc4[nH]nc(Cl)c34)c2CO1 (single isomer, unassigned) [Example 427, (*S)-3-(3-Chloro-1H-pyrazolo[3,4-b]pyridin-4-yl)-2-(5-fluoropyridin-2-yl)-6-(methyl-d3)-6-(trifluoromethyl)-6,7-dihydro-4H-pyrazolo[5,1-c][1,4]oxazine] | 0.019 | 0.004
5 | [2H]C([2H])([2H])[C@]1(C(F)(F)F)Cn2nc(-c3ccc(F)cn3)c(-c3cc(C)nc4[nH]nc(C)c34)c2CO1 (single isomer, unassigned) [Example 428, (*R)-3-(3,6-Dimethyl-1H-pyrazolo[3,4-b]pyridin-4-yl)-2-(5-fluoropyridin-2-yl)-6-(methyl-d3)-6-(trifluoromethyl)-6,7-dihydro-4H-pyrazolo[5,1-c][1,4]oxazine] | 0.076 | 0.009
6 | [2H]C([2H])([2H])[C@@]1(C(F)(F)F)Cn2nc(-c3ccc(F)cn3)c(-c3cc(C)nc4[nH]nc(C)c34)c2CO1 (single isomer, unassigned) [Example 429, (*S)-3-(3,6-Dimethyl-1H-pyrazolo[3,4-b]pyridin-4-yl)-2-(5-fluoropyridin-2-yl)-6-(methyl-d3)-6-(trifluoromethyl)-6,7-dihydro-4H-pyrazolo[5,1-c][1,4]oxazine] | 2.23 | 0.133
7 | [2H]C([2H])([2H])[C@]1(C(F)(F)F)Cn2nc(-c3ccc(F)cn3)c(-c3c(F)c(C)nc4[nH]nc(C)c34)c2CO1 (single isomer, unassigned) [Example 430, (*R)-3-(5-Fluoro-3,6-dimethyl-1H-pyrazolo[3,4-b]pyridin-4-yl)-2-(5-fluoropyridin-2-yl)-6-(methyl-d3)-6-(trifluoromethyl)-6,7-dihydro-4H-pyrazolo[5,1-c][1,4]oxazine] | 1.19 | 0.092
8 | [2H]C([2H])([2H])[C@@]1(C(F)(F)F)Cn2nc(-c3ccc(F)cn3)c(-c3c(F)c(C)nc4[nH]nc(C)c34)c2CO1 (single isomer, unassigned) [Example 431, (*S)-3-(5-Fluoro-3,6-dimethyl-1H-pyrazolo[3,4-b]pyridin-4-yl)-2-(5-fluoropyridin-2-yl)-6-(methyl-d3)-6-(trifluoromethyl)-6,7-dihydro-4H-pyrazolo[5,1-c][1,4]oxazine] | > 10 | 1.58
9 | Fc1ccc(-c2nn3c(c2-c2ccnc4[nH]ncc24)COC2(C3)CC2(F)F)nc1 (single isomer, unassigned) [Example 433, (*R)-1′. 1′-Difluoro-2-(5-fluoro-2-pyridyl)-3-(1H-pyrazolo[3,4-b]pyridin-4-yl)spiro[4,7-dihydropyrazolo[5,1-c][1,4]oxazine-6,2′-cyclopropane]] | 0.079 | 0.004
10 | Fc1ccc(-c2nn3c(c2-c2ccnc4[nH]ncc24)COC2(C3)CC2(F)F)nc1 (single isomer, unassigned) [Example 434, (*S)-1′. 1′-Difluoro-2-(5-fluoro-2-pyridyl)-3-(1H-pyrazolo[3,4-b]pyridin-4-yl)spiro[4,7-dihydropyrazolo[5,1-c][1,4]oxazine-6,2′-cyclopropane]] | 8.29 | 0.165
11 | Fc1ccc(-c2nn3c(c2-c2c(F)cnc4[nH]ncc24)COC2(C3)CC2(F)F)nc1 (single isomer, unassigned) [Example 435, (*R)-1′. 1′-Difluoro-3-(5-fluoro-1H-pyrazolo[3,4-b]pyridin-4-yl)-2-(5-fluoro-2-pyridyl)spiro[4,7-dihydropyrazolo[5,1-c][1,4]oxazine-6,2′-cyclopropane]] | 0.049 | 0.005
12 | Fc1ccc(-c2nn3c(c2-c2c(F)cnc4[nH]ncc24)COC2(C3)CC2(F)F)nc1 (single isomer, unassigned) [Example 436, (*S)-1′1l′-Difluoro-3-(5-fluoro-1H-pyrazolo[3,4-b]pyridin-4-yl)-2-(5-fluoro-2-pyridyl)spiro[4,7-dihydropyrazolo[5,1-c][1,4]oxazine-6,2′-cyclopropane]] | 3.96 | 0.156
13 | C[C@@H]1n2nc(-c3ccc(F)cn3)c(-c3ccnc4[nH]nc(Cl)c34)c2COC1(C)C (single isomer, unassigned) [Example 437, (*S)-3-(3-Chloro-1H-pyrazolo[3,4-b]pyridin-4-yl)-2-(5-fluoropyridin-2-yl)-6,6,7-trimethyl-6,7-dihydro-4H-pyrazolo[5,1-c][1,4]oxazine] | 0.046 | 0.005
14 | Cc1n[nH]c2nccc(-c3c(-c4ccc(F)cc4)nn4c3OCC3(C4)CC3(F)F)c12 (single isomer, unassigned) [Example 472, (*S)-2,2-Difluoro-2′-(4-fluorophenyl)-3′-(3-methyl-1H-pyrazolo[3,4-b]pyridin-4-yl)-5′H,7′H-spiro[cyclopropane-1,6′-pyrazolo[5,1-b][1,3]oxazine]] | 0.597 | 0.069
15 | Cc1n[nH]c2nccc(-c3c(-c4ccc(F)cc4)nn4c3OCC3(C4)CC3(F)F)c12 (single isomer, unassigned) [Example 473, (*R)-2,2-Difluoro-2′-(4-fluorophenyl)-3′-(3-methyl-1H-pyrazolo[3,4-b]pyridin-4-yl)-5′H,7′H-spiro[cyclopropane-1,6′-pyrazolo[5,1-b][1,3]oxazine]] | 0.006 | 0.002
16 | Cc1cc(-c2c(-c3ccc(F)cc3)nn3c2OCC2(C3)CC2(F)F)c2cn[nH]c2n1 (single isomer, unassigned) [Example 474, *S-2,2-Difluoro-2′-(4-fluorophenyl)-3′-6-methyl-1H-pyrazolo[3,4-b]pyridin-4-yl)-5′H,7′H-spiro[cyclopropane-1,6′-pyrazolo[5,1-b][1,3]oxazine]] | 0.002 | 0.001
17 | Cc1cc(-c2c(-c3ccc(F)cc3)nn3c2OCC2(C3)CC2(F)F)c2cn[nH]c2n1 (single isomer, unassigned) [Example 475, (*R)-2,2-Difluoro-2′-(4-fluorophenyl)-3′-(6-methyl-1H-pyrazolo[3,4-b]pyridin-4-yl)-5′H,7′H-spiro[cyclopropane-1,6′-pyrazolo[5,1-b][1,3]oxazine]] | 0.036 | 0.006
18 | Fc1ccc(-c2nn3c(c2-c2ccnc4[nH]ncc24)OCC2(C3)CC2(F)F)cc1 (single isomer, unassigned) [Example 476, (*S)-2,2-Difluoro-2′-(4-fluorophenyl)-3′-1H-pyrazolo[3,4-b]pyridin-4-yl)-5′H,7′H-spiro[cyclopropane-1,6′-pyrazolo[5,1-b][1,3]oxazine]] | 0.001 | 0.001
19 | Fc1ccc(-c2nn3c(c2-c2ccnc4[nH]ncc24)OCC2(C3)CC2(F)F)cc1 (single isomer, unassigned) [Example 477, (*R)-2,2-Difluoro-2′-(4-fluorophenyl)-3′-1H-pyrazolo[3,4-b]pyridin-4-yl)-5′H,7′H-spiro[cyclopropane-1,6′-pyrazolo[5,1-b][1,3]oxazine]] | 0.033 | 0.006
20 | Fc1ccc(-c2nn3c(c2-c2ccnc4[nH]ncc24)OCC2(C3)CC2(F)F)nc1 (single isomer, unassigned) [Example 478, (*S)-2,2-Difluoro-2′-(5-fluoropyridin-2-yl)-3′-1H-pyrazolo[3,4-b]pyridin-4-yl)-5′H,7′H-spiro[cyclopropane-1,6′-pyrazolo[5,1-b][1,3]oxazine]] | 0.004 | 0.001
21 | Fc1ccc(-c2nn3c(c2-c2ccnc4[nH]ncc24)OCC2(C3)CC2(F)F)nc1 (single isomer, unassigned) [Example 479, (*R)-2,2-Difluoro-2′-(5-fluoropyridin-2-yl)-3′-1H-pyrazolo[3,4-b]pyridin-4-yl)-5′H,7′H-spiro[cyclopropane-1,6′-pyrazolo[5,1-b][1,3]oxazine]] | 1.32 | 0.032
22 | COC1(C)COCc2c(-c3ccnc4[nH]ncc34)c(-c3ccc(F)cn3)nn2C1 (single isomer, unassigned) [Example 485, (*S)-2-(5-Fluoropyridin-2-yl)-7-methoxy-7-methyl-3-(1H-pyrazolo[3,4-b]pyridin-4-yl)-7,8-dihydro-4H,6H-pyrazolo[5,1-c][1,4]oxazepine] | 8.06 | 0.37
